Measurements taken from patent US9284281B2, “Indication of naphtho[2,3-F]quinoxaline-7,12-dione compound in alleviating pain” (NATIONAL CENTRAL UNIVERSITY, priority 2014, dated 2016).

Assays:
Type in all cases: in vivo
[1] = test system: CD-1 mice; experiment: Neuropathic pain: chronic constriction injury (CCI) of the sciatic nerve, mechanical hyperalgesia by von Frey filaments; details: for paw withdrawal threshold (PWT): one week after CCI
Description: The assessment of the effectiveness of the compound for alleviating neuropathic pain used the animal model of chronic constriction injury (CCI) of the sciatic nerve, which was established by Bennett and Xie (1988). After the surgery, the mice developed long-lasting hypersensitivity to mechanical stimuli (chronic mechanical hyperalgesia), even being lightly touched. The mechanical hyperalgesia test was used to evaluate the analgesic effect of the compound.
The mice, after a week following the surgery, were intraplantarly injected with a series of different dosages of the naphtho[2,3-f]quinoxaline-7,12-dione compound, […], or the mice were injected with 2.2 μg/kg of compound intrathecally, or with 43 μg/kg of the compound intraperitoneally. The hypersensitivity to mechanical stimuli was measured using von Frey filaments at 60 minutes after the injection. The mice injected with saline following surgery were the control group and the other mice injected with gabapentin following surgery were the positive control group.
(§1) 2.2 μg/kg of the compound was administered to the mice by intraplantar injection about 5 minutes prior to the injection of the acid solution. An hour after the injection of the acid, the hypersensitivity of the mice to mechanical stimuli was measured using von Frey filaments (Touch-Test North Coast Medical, Inc., Margan Hill, Calif.). The mice were placed in transparent plastic chambers (10×8×10 cm) on a metal mesh floor at least 30 minutes per day for 2 days to acclimatize them to the testing room prior to the test. 60 minutes after the mice were administered with the compound, the mechanical hyperalgesia was assessed through the measurement of paw withdrawal frequencies by a sequential series of von Frey filaments of weights 0.6, 1.0, 1.4, 2.0 and 4.0 g applied perpendicularly to the plantar surface of the paw. The paw was briefly stimulated with force sufficient to slightly bend the filaments and a single trial consisted of repeated applications of the von Frey filaments five times, each application lasting for about 5 seconds. The occurrence of paw withdrawal resulting from the stimulation or removing the stimulation for each trial was quantified as a percentage response frequency for each filament. When the frequency was more than 50%, the weight of the von Frey filaments was determined as the paw withdrawal threshold (PWT). To make sure all the mice were under normal physical conditions, all housing conditions complied with general feeding standards, and the temperature and illumination were maintained in a suitable range.
According to the method described by Bennett and Xie, Pain, 1988, 33, 87-107, 8 to 12-week-old CD-1 mice were subjected to the chronic constriction injury (CCI) of the sciatic nerve, which is an animal model inducing chronic neuropathic pain. To anesthetize the mice, each of the mice was injected with 240 mg/kg of 2,2,2-tribromoethanol (Avertin). Then three ligatures were loosely tied around the sciatic nerve of the mouse with chromic gut. The surgical procedure for the Sham (non ligation) control group was identical to that mentioned above except that the sciatic nerves were not ligated. A week after the mice in the experimental (CCI+compound) group had chronic constriction injury of sciatic nerves, the compound was intraplantarly, intrathecally, or intraperitoneally injected into the mice. 60 minutes after the injection, the mice were directly subjected to the hypersensitivity test to mechanical stimuli. The mice under the surgery treated with saline were the CCI group; the mice treated with gabapentin were the positive control (CCI+Gabapentin) group.

[2] = test system: mice; experiment: Inflammatory pain: chronic inflammatory pain induced by Complete Freund's Adjuvant (CFA), mechanical hyperalgesia by von Frey filaments
Experimental: When 50% CFA was intraplantarly injected into the mouse, paw edema and chronic mechanical hyperalgesia were developed in the tested mice. Different dosages of the naphtho[2,3-f]quinoxaline-7,12-dione compound, 0.22, 2.2, 22 μg/kg were intraplantarly injected into mouse hindpaw, followed by 50% CFA injection. At 60 minutes after the CFA injection, the hypersensitivity of the mice to mechanical stimuli was measured using von Frey filaments.
as §1
To induce paw edema and chronic inflammatory pain, 25 μL of 50% Complete Freund's Adjuvant (CFA) in saline was intraplantarly injected into the right hind paw of the mouse. […] 60 minutes after the CFA injection, the hypersensitivity to mechanical stimuli was measured using von Frey filaments.

[3] = test system: CD-1 mice; experiment: Nociceptive pain: acute pain induced by pH 5.0 acid solution, mechanical hyperalgesia by von Frey filaments; details: for paw withdrawal threshold (PWT): control 4.0±0 g; for effective dosage: intraplantar, acute pain induced by acid solution
Experimental: Naphtho[2,3-f]quinoxaline-7,12-dione compound was intraplantarly injected into the right hind paws of 8 to 12-week-old CD-1 mice. 5 minutes after the injection, 25 μL of pH 5.0 acid solution was intraplantarly injected into each of the mice. About 60 minutes later, the mice were directly tested with the hypersensitivity to mechanical stimuli using von Frey filaments (Touch-Test North Coast Medical, Inc., Margan Hill, Calif.). The control group was conducted under the same conditions except it was treated with a compound-free saline. The results are shown in FIG. 1, where the injection of 25 μL of the pH 5.0 acid solution induced mechanical hyperalgesia in the right hind paw of the mice, and the paw withdrawal threshold (PWT) of these mice was 1.1±0.065 g. By injecting 2.2 μg/kg of the naphtho[2,3-f]quinoxaline-7,12-dione (NSC745887, D1) compound intraplantarly into the right hind paws of the mice, the paw withdrawal threshold of those mice recovered to 4.0±0 g (PWT of control group mice was 4.0±0 g).
25 μL of acid solution with a pH of 5.0 was injected into 8 to 12-week-old CD-1 mice in order to induce mechanical hyperalgesia. Mice injected with saline were the control group; the ones that were injected with compound only were compound group; the ones that were injected with only the acid solution were the acid group and those injected with both compound and the acid solution were the acid+compound group.
The above-mentioned 1 M of pH 5.0 solution was prepared by dissolving 1.952 g of 2-(N-morpholino)ethanesulfonic acid (MES) in 10 mL of sterilized secondary water. The pH of the solution was adjusted to 5.0 using 1N NaOH solution. Before injection, pH5.0 was diluted with saline into 10 mM.
as §1

[4] = 2.2 μg/kg intraplantar once every week for three weeks, FIG. 3

## Cc1nc2ccc3c(c2nc1C)C(=O)c1ccccc1C3=O [C3, 2,3-dimethylnaphtho[2,3-f]quinoxaline-7,12-dione]
[1]; 24 μg/kg intraplantar, FIG. 2B
  paw withdrawal threshold (PWT): 1.4 g
[2]; 24 μg/kg intraplantar before CFA, FIG. 4B
  paw withdrawal threshold (PWT): 1.4 g
[3]; 24 μg/kg intraplantar, then pH 5.0 acid solution, FIG. 1B
  paw withdrawal threshold (PWT): 2.0 ± 0 g
[3]
  effective dosage: 24 µg/kg

## O=C1c2ccccc2C(=O)c2c1ccc1nccnc21 [D1, naphtho[2,3-f]quinoxaline-7,12-dione]
[1]; 2.2 μg/kg intraplantar once every week for three weeks
  tolerance to the compound: no obvious indication that the mice developed tolerance
[1]; [4]
  paw withdrawal threshold (PWT), first week: 3.3 ± 0.67 g
  paw withdrawal threshold (PWT), second week: 3.3 ± 0.67 g
  paw withdrawal threshold (PWT), third week: 3.0 ± 0.1 g
[1]; 2.2 μg/kg intraplantar, 60 min after injection, FIG. 2A, CCI 0.9±0.23 g, control 3.6±0.29 g
  paw withdrawal threshold (PWT): 3.3 ± 0.67 g
[1]; 2.2 μg/kg intraplantar, FIG. 2B, CCI 0.9±0.23 g
  paw withdrawal threshold (PWT): 2.0 ± 0 g
[1]; 2.2 μg/kg intrathecal, FIG. 2A
  paw withdrawal threshold (PWT): 2.0 g
[1]; 22 μg/kg intraplantar, FIG. 2A
  paw withdrawal threshold (PWT): 3.3 ± 0.67 g
[1]; 43 μg/kg intraperitoneal
  inhibition of mechanical hyperalgesia induced by CCI: completely inhibited mechanical hyperalgesia
[2]; 2.2 μg/kg intraplantar before 50% CFA, 60 min after CFA, FIG. 4A, CFA 0.4±0.033 g, control 3.8±0.171 g
  paw withdrawal threshold (PWT): 1.1 ± 0.15 g
[2]; 22 μg/kg intraplantar before 50% CFA, FIG. 4A
  paw withdrawal threshold (PWT): 2.0 ± 0.411 g
[2]; 22 μg/kg intraplantar before CFA, FIG. 4B, control 3.8±0.171 g
  paw withdrawal threshold (PWT): 2.3 g
[3]; 2.2 μg/kg intraplantar, 5 min before pH 5.0 acid solution, about 60 min later, acid only 1.1±0.065 g
  paw withdrawal threshold (PWT): 4.0 ± 0 g
[3]
  effective dosage: 2.2 µg/kg
[3]; sole injection of the compound without the acid solution, did not induce pain
  paw withdrawal threshold (PWT), compound without acid solution: 4.0 ± 0 g

## O=C1c2ccccc2C(=O)c2c1ccc1[nH]c(=O)c(=O)[nH]c21 [D2, naphtho[2,3-f]quinoxaline-2,3,7,12(1H,4H)-tetraone]
[1]; 24.3 μg/kg intraplantar, FIG. 2B
  paw withdrawal threshold (PWT): 2.0 ± 0 g
[2]; 24.3 μg/kg intraplantar before CFA, FIG. 4B
  paw withdrawal threshold (PWT): 1.0 g
[3]; 24.3 μg/kg intraplantar, then pH 5.0 acid solution, FIG. 1C
  paw withdrawal threshold (PWT): 4.0 ± 0 g
[3]
  effective dosage: 24.3 µg/kg

## NCC1(CC(=O)O)CCCCC1 [gabapentin, reference compound]
[1]; intraperitoneal injection
  dose required to inhibit chronic mechanical hyperalgesia caused by CCI: at least 15,000 μg/kg
